In PubChem BioAssay AID220 (DTP/NCI, 2004):
Several values for one entry are separate records, joined by “and”; a condition that tells them apart may be missing. Identical values can stand only once. Results filed as inconclusive are left out.

Tested on: CD8F1 mice, subcutaneous mammary adenocarcinoma, T/C%
Assay: NCI In Vivo Anticancer Drug Screen. Data for tumor model Mammary Adenocarcinoma CD8F1 (subcutaneous) in CD8F1
Details: higher = larger tumour
Outline: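 Ratio of treated to vehicle-control outcome, based on either survival or tumor size, in mice bearing transplantable tumors given the test compound.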

[1] = endpoint: median tumor weight (est.), dose: 12.5 mg/kg/injection, schedule: Q07DX005 (ip), vehicle: saline with Tween-80
[2] = endpoint: median tumor weight (est.), dose: 25.0 mg/kg/injection, schedule: Q07DX005 (ip), vehicle: saline with Tween-80
[3] = endpoint: median tumor weight (est.), dose: 50.0 mg/kg/injection, schedule: Q07DX005 (ip), vehicle: saline with Tween-80
[4] = endpoint: median tumor weight (est.), dose: 100.0 mg/kg/injection, schedule: Q07DX005 (ip), vehicle: saline with Tween-80
[5] = endpoint: median tumor weight change, dose: 125.0 mg/kg/injection, schedule: Q01DX001 (ip), vehicle: saline with Tween-80
[6] = endpoint: median tumor weight (est.), dose: 12.5 mg/kg/injection, schedule: Q07DX005 (ip), vehicle: saline
[7] = endpoint: median tumor weight (est.), dose: 25.0 mg/kg/injection, schedule: Q07DX005 (ip), vehicle: saline

Compound: CC1=NNC(=O)C1CCO (stereo not given)
- T/C (endpoint: median tumor weight change, dose: 450.0 mg/kg/injection, schedule: Q01DX001 (ip), vehicle: Klucel (hydroxypropylcellulose) (HPC)): 102 % of control
- T/C (endpoint: median tumor weight change, dose: 900.0 mg/kg/injection, schedule: Q01DX001 (ip), vehicle: Klucel (hydroxypropylcellulose) (HPC)): 157 % of control
- T/C (endpoint: median tumor weight change, dose: 1800.0 mg/kg/injection, schedule: Q01DX001 (ip), vehicle: Klucel (hydroxypropylcellulose) (HPC)): 189 % of control
- T/C (endpoint: median tumor weight change, dose: 3600.0 mg/kg/injection, schedule: Q01DX001 (ip), vehicle: Klucel (hydroxypropylcellulose) (HPC)): 80 % of control

Compound: CCCCCCCCCCCCCCCCCC(=O)Nc1ccn(C2OC(CO)C(O)C2O)c(=O)n1 (stereo not given)
- T/C [1]: 98 % of control
- T/C (endpoint: median tumor weight (est.), dose: 12.5 mg/kg/injection, schedule: Q07DX005 (ip), vehicle: suspension in saline): 93 % of control
- T/C [2]: 52 % of control
- T/C (endpoint: median tumor weight (est.), dose: 25.0 mg/kg/injection, schedule: Q07DX005 (ip), vehicle: suspension in saline): 27 % of control
- T/C [3]: 49 % of control
- T/C (endpoint: median tumor weight (est.), dose: 50.0 mg/kg/injection, schedule: Q07DX005 (ip), vehicle: suspension in saline): 45 % of control
- T/C (endpoint: median tumor weight (est.), dose: 77.0 mg/kg/injection, schedule: Q07DX005 (ip), vehicle: saline with Tween-80): 25 % of control
- T/C [4]: 13 % of control
- T/C (endpoint: median tumor weight (est.), dose: 100.0 mg/kg/injection, schedule: Q07DX005 (ip), vehicle: suspension in saline): 53 % of control
- T/C (endpoint: median tumor weight (est.), dose: 118.0 mg/kg/injection, schedule: Q07DX005 (ip), vehicle: saline with Tween-80): 7 % of control

Compound: Nc1nc(-c2cccc3ccccc23)cc2ccccc12
- T/C [3]: 53 % of control
- T/C [4]: 81 % of control
- T/C (endpoint: median tumor weight (est.), dose: 200.0 mg/kg/injection, schedule: Q07DX005 (ip), vehicle: saline with Tween-80): 37 % of control

Compound: Cc1cc2cc3cc(C)c(N)cc3nc2cc1N
- T/C (endpoint: median tumor weight change, dose: 31.25 mg/kg/injection, schedule: Q01DX001 (ip), vehicle: saline with Tween-80): 59 % of control
- T/C (endpoint: median tumor weight change, dose: 62.5 mg/kg/injection, schedule: Q01DX001 (ip), vehicle: saline with Tween-80): 72 % of control
- T/C [5]: 42 % of control
- T/C (endpoint: median tumor weight change, dose: 250.0 mg/kg/injection, schedule: Q01DX001 (ip), vehicle: saline with Tween-80): 36 % of control

Compound: COc1cccc2c1C(=O)c1c(O)c3c(c(O)c1C2=O)C[C@@](O)(C(C)=O)C[C@@H]3OC1CC(N(Cc2ccccc2)Cc2ccccc2)C(O)C(C)O1 (stereo not given in full)
- T/C (endpoint: median tumor weight (est.), dose: 1.56 mg/kg/injection, schedule: Q07DX005 (ip), vehicle: saline with Tween-80): 68 % of control
- T/C (endpoint: median tumor weight (est.), dose: 3.12 mg/kg/injection, schedule: Q07DX005 (ip), vehicle: saline with Tween-80): 72 % of control
- T/C (endpoint: median tumor weight (est.), dose: 6.25 mg/kg/injection, schedule: Q07DX005 (ip), vehicle: saline with Tween-80): 75 % of control
- T/C [1]: 29 % of control
- T/C [2]: 9 % of control

Compound: O=C(Nc1nncs1)c1cccs1
- T/C [5]: 92 % of control and 100 % of control

Compound: Cn1cnc([N+](=O)[O-])c1[Se]c1nc(N)nc2nc[nH]c12
- T/C (endpoint: median tumor weight (est.), dose: 6.25 mg/kg/injection, schedule: Q07DX005 (ip), vehicle: water): 109 % of control
- T/C (endpoint: median tumor weight (est.), dose: 12.5 mg/kg/injection, schedule: Q07DX005 (ip), vehicle: water): 104 % of control
- T/C (endpoint: median tumor weight (est.), dose: 25.0 mg/kg/injection, schedule: Q07DX005 (ip), vehicle: water): 173 % of control
- T/C (endpoint: median tumor weight (est.), dose: 50.0 mg/kg/injection, schedule: Q07DX005 (ip), vehicle: water): 215 % of control
- T/C (endpoint: median tumor weight (est.), dose: 200.0 mg/kg/injection, schedule: Q07DX005 (ip), vehicle: water): 107 % of control

Compound: CN(C)CCCNc1c2ccccc2nc2cccc([N+](=O)[O-])c12
- T/C (endpoint: median tumor weight (est.), dose: 0.06 mg/kg/injection, schedule: Q07DX004 (ip), vehicle: saline): 90 % of control
- T/C (endpoint: median tumor weight (est.), dose: 15.0 micrograms/kg/injection, schedule: Q07DX005 (ip), vehicle: saline): 86 % of control

Compound: CN1c2c(nc(N)[nH]c2=O)NCC1CCNc1ccc(C(=O)NC(CCC(=O)O)C(=O)O)cc1 (stereo not given)
- T/C (endpoint: mean tumor weight, dose: 25.0 mg/kg/injection, schedule: Q07DX008 (ip), vehicle: sodium bicarbonate): 119 % of control
- T/C (endpoint: mean tumor weight, dose: 50.0 mg/kg/injection, schedule: Q07DX008 (ip), vehicle: sodium bicarbonate): 77 % of control
- T/C (endpoint: mean tumor weight, dose: 100.0 mg/kg/injection, schedule: Q07DX008 (ip), vehicle: sodium bicarbonate): 72 % of control
- T/C [6]: 103 % of control
- T/C [7]: 95 % of control
- T/C (endpoint: median tumor weight (est.), dose: 800.0 mg/kg/injection, schedule: Q07DX005 (ip), vehicle: saline): 98 % of control

Compound: C1CN2CN3CCN(CN1C3)C2
- T/C (endpoint: mean tumor weight, dose: 12.5 mg/kg/injection, schedule: Q07DX006 (ip), vehicle: saline): 85 % of control
- T/C (endpoint: mean tumor weight, dose: 25.0 mg/kg/injection, schedule: Q07DX006 (ip), vehicle: saline): 104 % of control
- T/C (endpoint: mean tumor weight, dose: 50.0 mg/kg/injection, schedule: Q07DX006 (ip), vehicle: saline): 79 % of control
- T/C (endpoint: mean tumor weight, dose: 100.0 mg/kg/injection, schedule: Q07DX006 (ip), vehicle: saline): 26 % of control
- T/C (endpoint: median tumor weight (est.), dose: 6.25 mg/kg/injection, schedule: Q07DX005 (ip), vehicle: saline): 75 % of control
- T/C [6]: 107 % of control
- T/C [7]: 93 % of control
- T/C (endpoint: median tumor weight (est.), dose: 50.0 mg/kg/injection, schedule: Q07DX005 (ip), vehicle: saline): 82 % of control
- T/C (endpoint: median tumor weight (est.), dose: 100.0 mg/kg/injection, schedule: Q07DX005 (ip), vehicle: saline): 107 % of control
- T/C (endpoint: median tumor weight (est.), dose: 200.0 mg/kg/injection, schedule: Q07DX005 (ip), vehicle: saline): 67 % of control

Compound: N=[N+]=CC(=O)CCC(NC(=O)C(CCC(=O)C=[N+]=N)NC(=O)CCC(N)C(=O)O)C(=O)O (stereo not given)
- T/C (endpoint: median tumor weight (est.), dose: 3.12 mg/kg/injection, schedule: Q07DX004 (ip), vehicle: clinical formulation): 34 % of control
- T/C (endpoint: median tumor weight (est.), dose: 6.25 mg/kg/injection, schedule: Q07DX004 (ip), vehicle: clinical formulation): 123 % of control
- T/C (endpoint: median tumor weight (est.), dose: 12.5 mg/kg/injection, schedule: Q07DX004 (ip), vehicle: clinical formulation): 50 % of control
- T/C (endpoint: median tumor weight (est.), dose: 25.0 mg/kg/injection, schedule: Q07DX004 (ip), vehicle: clinical formulation): 22 % of control
- T/C (endpoint: median tumor weight (est.), dose: 50.0 mg/kg/injection, schedule: Q07DX004 (ip), vehicle: clinical formulation): 15 % of control
- T/C (endpoint: median tumor weight (est.), dose: 100.0 mg/kg/injection, schedule: Q07DX004 (ip), vehicle: clinical formulation): 12 % of control

Compound: C[C@]12CCC(=O)C=C1CC[C@@H]1[C@@H]2[C@@H](O)C[C@@]2(C)[C@H]1CC[C@]2(O)C(=O)CO
- T/C (endpoint: median tumor weight (est.), dose: 50.0 mg/kg/injection, schedule: Q07DX005 (ip), vehicle: Klucel (hydroxypropylcellulose) (HPC)): 76 % of control
- T/C (endpoint: median tumor weight (est.), dose: 100.0 mg/kg/injection, schedule: Q07DX005 (ip), vehicle: Klucel (hydroxypropylcellulose) (HPC)): 95 % of control
- T/C (endpoint: median tumor weight (est.), dose: 200.0 mg/kg/injection, schedule: Q07DX005 (ip), vehicle: Klucel (hydroxypropylcellulose) (HPC)): 60 % of control
- T/C (endpoint: median tumor weight (est.), dose: 400.0 mg/kg/injection, schedule: Q07DX005 (ip), vehicle: Klucel (hydroxypropylcellulose) (HPC)): 29 % of control
- T/C (endpoint: median tumor weight (est.), dose: 800.0 mg/kg/injection, schedule: Q07DX005 (ip), vehicle: Klucel (hydroxypropylcellulose) (HPC)): 21 % of control
- T/C (endpoint: median tumor weight change, dose: 100.0 mg/kg/injection, schedule: Q01DX001 (ip), vehicle: Klucel (hydroxypropylcellulose) (HPC)): 101 % of control
- T/C (endpoint: median tumor weight change, dose: 200.0 mg/kg/injection, schedule: Q01DX001 (ip), vehicle: Klucel (hydroxypropylcellulose) (HPC)): 99 % of control
- T/C (endpoint: median tumor weight change, dose: 400.0 mg/kg/injection, schedule: Q01DX001 (ip), vehicle: Klucel (hydroxypropylcellulose) (HPC)): 110 % of control
- T/C (endpoint: median tumor weight change, dose: 800.0 mg/kg/injection, schedule: Q01DX001 (ip), vehicle: Klucel (hydroxypropylcellulose) (HPC)): 57 % of control
